In this experiment the target is T1, recombinant human GluN1/GluN2A receptor (Homo sapiens, UniProt Q05586+Q12879).
T1 construct: expressed in transfected cells; host or cells: HEK293, tetracycline-inducible expression
The experiment is described as follows: Whole-cell patch clamp of mammalian cells (Syncropatch 384i), NMDA modulation. It is filed as cell-based. The following applies: HEK293 cells, human GluN1/GluN2A, glutamate 1 μM / glycine 100 μM, -80 mV, peak amplitude increase; for pEC50: read-out: EC50. In short, it runs like this: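 Modulation read as fold rise in peak current, (Icomp/Icontrol)−1, from 8 concentrations with ≥2 wells each, four-parameter fit. Compound pre-incubated 120 s then co-applied with 1 μM glutamate plus 100 μM glycine; tetracycline-inducible HEK293 GluN1/GluN2A cells clamped at −80 mV.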

Data on 14 molecules can be found in patent publication US20240368214A1, “POSITIVE NMDA-MODULATING COMPOUNDS AND METHODS OF USE THEREOF” (SAGE THERAPEUTICS, INC., priority 2021, published 2024).

pEC50: −log10 of the molar value. Like-named read-outs stand apart in the source and are kept apart here.

T1 sequence (Q12879 23-1464, other chains not shown): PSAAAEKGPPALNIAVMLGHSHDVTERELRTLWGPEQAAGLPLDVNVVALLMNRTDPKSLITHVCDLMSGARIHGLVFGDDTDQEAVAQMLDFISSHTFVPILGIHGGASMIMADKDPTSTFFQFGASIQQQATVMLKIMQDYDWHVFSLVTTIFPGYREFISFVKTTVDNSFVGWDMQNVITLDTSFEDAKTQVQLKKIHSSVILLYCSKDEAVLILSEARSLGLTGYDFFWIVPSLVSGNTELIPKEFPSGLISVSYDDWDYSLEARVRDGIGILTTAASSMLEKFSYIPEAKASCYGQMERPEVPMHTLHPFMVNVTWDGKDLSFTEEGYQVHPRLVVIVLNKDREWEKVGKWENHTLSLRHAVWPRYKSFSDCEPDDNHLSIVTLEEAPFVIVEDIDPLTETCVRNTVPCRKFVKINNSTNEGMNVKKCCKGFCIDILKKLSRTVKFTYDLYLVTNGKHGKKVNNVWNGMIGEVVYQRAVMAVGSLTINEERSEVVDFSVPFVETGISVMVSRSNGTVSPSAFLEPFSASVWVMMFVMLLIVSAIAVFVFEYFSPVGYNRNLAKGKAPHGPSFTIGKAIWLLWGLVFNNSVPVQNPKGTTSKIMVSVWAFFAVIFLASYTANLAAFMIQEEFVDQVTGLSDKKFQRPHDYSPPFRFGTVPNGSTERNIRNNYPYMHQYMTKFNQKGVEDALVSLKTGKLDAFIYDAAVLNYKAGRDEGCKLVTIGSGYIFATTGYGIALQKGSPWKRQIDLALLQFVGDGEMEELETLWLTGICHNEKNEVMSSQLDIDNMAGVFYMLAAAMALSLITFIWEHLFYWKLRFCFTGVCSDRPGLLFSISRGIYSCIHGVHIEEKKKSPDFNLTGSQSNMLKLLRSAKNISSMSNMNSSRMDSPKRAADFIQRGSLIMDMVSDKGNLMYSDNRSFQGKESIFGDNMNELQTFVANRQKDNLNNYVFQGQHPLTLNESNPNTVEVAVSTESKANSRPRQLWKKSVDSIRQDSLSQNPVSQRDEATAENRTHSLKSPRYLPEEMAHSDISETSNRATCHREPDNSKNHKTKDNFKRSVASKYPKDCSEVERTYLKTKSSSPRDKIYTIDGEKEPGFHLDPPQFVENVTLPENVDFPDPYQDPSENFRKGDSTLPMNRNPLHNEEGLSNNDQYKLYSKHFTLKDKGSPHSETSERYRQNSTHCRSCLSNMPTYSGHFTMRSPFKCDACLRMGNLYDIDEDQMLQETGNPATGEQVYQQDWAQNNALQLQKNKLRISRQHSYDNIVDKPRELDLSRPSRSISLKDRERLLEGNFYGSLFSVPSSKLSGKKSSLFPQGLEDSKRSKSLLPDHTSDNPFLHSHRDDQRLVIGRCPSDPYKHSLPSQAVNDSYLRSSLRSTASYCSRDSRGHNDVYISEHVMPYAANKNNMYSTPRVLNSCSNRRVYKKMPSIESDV

For the molecule `CC[C@]1(O)CC[C@@]2(C)C(=CC[C@H]3[C@@H]4[C@@H]5C[C@@H]5[C@H]([C@H](C)CCCC(C)(C)O)[C@@]4(C)CC[C@@H]32)C1` [Compound B-20, (2S,4aR,4bS,6aR,7S,7aS,8aR,8bS,8cR)-2-ethyl-7-((R)-6-hydroxy-6-methylheptan-2-yl)-4a,6a-dimethyl-1,2,3,4,4a,4b,5,6,6a,7,7a,8,8a,8b,8c,9-hexadecahydrocyclopropa[4,5]cyclopenta[1,2-a]phenanthren-2-ol], under “Table B-2”, the Emax lay in the range of 100 to 200% and the pEC50 was 7.00 to 9.00.
Take `CC[C@]1(O)CC[C@@]2(C)C(=CC[C@H]3[C@@H]4[C@H](C)C[C@H]([C@H](C)CCCC(C)(C)O)[C@@]4(C)CC[C@@H]32)C1` [Compound B-21, (3S,8R,9S,10R,13R,14S,15R,17R)-3-ethyl-17-((R)-6-hydroxy-6-methylheptan-2-yl)-10,13,15-trimethyl-2,3,4,7,8,9,10,11,12,13,14,15,16,17-tetradecahydro-1H-cyclopenta[a]phenanthren-3-ol]: under “Table B-2”, the pEC50 is 7.00 to 9.00.
`CC[C@]1(O)CC[C@@]2(C)[C@@H](CC[C@@H]3[C@@H]2CC[C@]2(C)[C@@H]([C@H](C)CCCC(C)(C)O)[C@H](C)C[C@@H]32)C1` [Compound B-22, (3S,5S,8R,9S,10S,13S,14S,16R,17S)-3-ethyl-17-((R)-6-hydroxy-6-methylheptan-2-yl)-10,13,16-trimethylhexadecahydro-1H-cyclopenta[a]phenanthren-3-ol]: where the note is “Table B-2”, the maximal response (Emax) was above 200% and the pEC50 was 6.30 to 7.00.
As to `CC[C@]1(O)CC[C@@]2(C)[C@@H](CC[C@@H]3[C@@H]2CC[C@]2(C)[C@@H]([C@H](C)CC[C@H](O)C(C)C)[C@H](C)C[C@@H]32)C1` [Compound B-23, (3S,5S,8R,9S,10S,13S,14S,16R,17S)-3-ethyl-17-((2R,5S)-5-hydroxy-6-methylheptan-2-yl)-10,13,16-trimethylhexadecahydro-1H-cyclopenta[a]phenanthren-3-ol], for the setting “Table B-2”, the maximal effect (Emax) was above 200% and the pEC50 was 7.00 to 9.00.
In the same order, the values of `CC[C@]1(O)CC[C@@]2(C)[C@@H](CC[C@@H]3[C@@H]2CC[C@]2(C)[C@@H]([C@H](C)CC[C@@H](O)C(C)C)[C@H](C)C[C@@H]32)C1` [Compound B-24, (3S,5S,8R,9S,10S,13S,14S,16R,17S)-3-ethyl-17-((2R,5R)-5-hydroxy-6-methylheptan-2-yl)-10,13,16-trimethylhexadecahydro-1H-cyclopenta[a]phenanthren-3-ol] are above 200% and 6.30 to 7.00.
Regarding `CC[C@]1(O)CC[C@@]2(C)[C@@H](CC[C@@H]3[C@@H]2CC[C@]2(C)[C@@H]([C@H](C)CC[C@@H](O)C(C)(C)C#N)CC[C@@H]32)C1` [Compound C-1, (3R,6R)-6-((3S,5S,8R,9S,10S,13R,14S,17R)-3-ethyl-3-hydroxy-10,13-dimethylhexadecahydro-1H-cyclopenta[a]phenanthren-17-yl)-3-hydroxy-2,2-dimethylheptanenitrile], for the setting “Table C-2”, the Emax was above 200% and the pEC50 was 7.00 to 9.00.
In the same order, the values of `CC[C@]1(O)CC[C@@]2(C)[C@@H](CC[C@@H]3[C@@H]2CC[C@]2(C)[C@@H]([C@H](C)CC[C@H](O)C(C)(C)C#N)CC[C@@H]32)C1` [Compound C-2, (3S,6R)-6-((3S,5S,8R,9S,10S,13R,14S,17R)-3-ethyl-3-hydroxy-10,13-dimethylhexadecahydro-1H-cyclopenta[a]phenanthren-17-yl)-3-hydroxy-2,2-dimethylheptanenitrile] are 100 to 200% and 7.00 to 9.00.
As for `CC[C@]1(O)CC[C@@]2(C)[C@@H](CC[C@@H]3[C@@H]2CC[C@]2(C)[C@@H]([C@H](C)CC[C@@H](O)C4(C#N)CC4)CC[C@@H]32)C1` [Compound C-3, 1-((1R,4R)-4-((3S,5S,8R,9S,10S,13R,14S,17R)-3-ethyl-3-hydroxy-10,13-dimethylhexadecahydro-1H-cyclopenta[a]phenanthren-17-yl)-1-hydroxypentyl)cyclopropanecarbonitrile], where the note is “Table C-2”, the Emax is above 200% and the pEC50 is 7.00 to 9.00.
For `CC[C@]1(O)CC[C@@]2(C)[C@@H](CC[C@@H]3[C@@H]2CC[C@]2(C)[C@@H]([C@H](C)CC[C@H](O)C4(C#N)CC4)CC[C@@H]32)C1` [Compound C-4, 1-((1S,4R)-4-((3S,5S,8R,9S,10S,13R,14S,17R)-3-ethyl-3-hydroxy-10,13-dimethylhexadecahydro-1H-cyclopenta[a]phenanthren-17-yl)-1-hydroxypentyl)cyclopropanecarbonitrile] the same measures were below 100% and 6.30 to 7.00.
Take `CC[C@H](C#N)[C@H](O)CC[C@@H](C)[C@H]1CC[C@H]2[C@@H]3CC[C@H]4C[C@](O)(CC)CC[C@]4(C)[C@H]3CC[C@]12C` [Compound C-5, (2R,3R,6R)-2-ethyl-6-((3S,5S,8R,9S,10S,13R,14S,17R)-3-ethyl-3-hydroxy-10,13-dimethylhexadecahydro-1H-cyclopenta[a]phenanthren-17-yl)-3-hydroxyheptanenitrile]: under “Table C-2”, the Emax was above 200% and the negative-log EC50 (pEC50) is 7.00 to 9.00.
Consider `CC[C@H](C#N)[C@@H](O)CC[C@@H](C)[C@H]1CC[C@H]2[C@@H]3CC[C@H]4C[C@](O)(CC)CC[C@]4(C)[C@H]3CC[C@]12C` [Compound C-6, (2R,3S,6R)-2-ethyl-6-((3S,5S,8R,9S,10S,13R,14S,17R)-3-ethyl-3-hydroxy-10,13-dimethylhexadecahydro-1H-cyclopenta[a]phenanthren-17-yl)-3-hydroxyheptanenitrile], for which, under “Table C-2”, the maximum response (Emax) was 100 to 200% and the pEC50 is 6.30 to 7.00.
For the molecule `CC[C@@H](C#N)[C@H](O)CC[C@@H](C)[C@H]1CC[C@H]2[C@@H]3CC[C@H]4C[C@](O)(CC)CC[C@]4(C)[C@H]3CC[C@]12C` [Compound C-7, (2S,3R,6R)-2-ethyl-6-((3S,5S,8R,9S,10S,13R,14S,17R)-3-ethyl-3-hydroxy-10,13-dimethylhexadecahydro-1H-cyclopenta[a]phenanthren-17-yl)-3-hydroxyheptanenitrile], under “Table C-2”, the Emax was above 200% and the pEC50 was 7.00 to 9.00.
In the case of `CC[C@@H](C#N)[C@@H](O)CC[C@@H](C)[C@H]1CC[C@H]2[C@@H]3CC[C@H]4C[C@](O)(CC)CC[C@]4(C)[C@H]3CC[C@]12C` [Compound C-8, (25,3S,6R)-2-ethyl-6-((3S,5S,8R,9S,10S,13R,14S,17R)-3-ethyl-3-hydroxy-10,13-dimethylhexadecahydro-1H-cyclopenta[a]phenanthren-17-yl)-3-hydroxyheptanenitrile], for the setting “Table C-2”, the Emax was below 100% and the pEC50 was 7.00 to 9.00.
For `COC[C@]1(O)CC[C@@]2(C)[C@@H](CC[C@@H]3[C@@H]2CC[C@]2(C)[C@@H]([C@H](C)CC[C@@H](O)C(C)(C)C#N)CC[C@@H]32)C1` [Compound C-9, (3R,6R)-3-hydroxy-6-((3S,5S,8R,9S,10S,13R,14S,17R)-3-hydroxy-3-(methoxymethyl)-10,13-dimethylhexadecahydro-1H-cyclopenta[a]phenanthren-17-yl)-2,2-dimethylheptanenitrile] the same measures were below 100% and 7.00 to 9.00.
